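Results reflect a 48-hour exposure of cells in 96-well plates to compound at five concentrations. GI50 marks 50% less growth. Definition used: TGI = concentration required for complete inhibition of growth.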
Legend:
Assay in all cases: NCI-60 cell line screen, 48 h
[1] = test system: A498 renal
[2] = test system: ACHN renal
[3] = test system: COLO 205 colon
[4] = test system: HT29 colon
[5] = test system: LOX IMVI melanoma
[6] = test system: MALME-3M melanoma
[7] = test system: SK-OV-3 ovarian
[8] = test system: SN12C renal
[9] = test system: SW-620 colon
[10] = test system: UACC-62 melanoma

Compound | GI50 [1] | TGI [1] | GI50 [2] | TGI [2] | GI50 [3] | TGI [3] | GI50 [4] | TGI [4] | GI50 [5] | TGI [5] | GI50 [6] | TGI [6] | GI50 [7] | TGI [7] | GI50 [8] | TGI [8] | GI50 [9] | TGI [9] | GI50 [10] | TGI [10]
Nc1c(Br)cc(Br)c2c1[nH]c(=O)c1ccccc12 | 1.68 µM | 4.86 µM | 3.18 µM | 10.4 µM | 22.1 µM | > 100 µM | > 29.7 µM | > 100 µM | 20.5 µM | > 100 µM | 3.43 µM | 10.1 µM | 2.85 µM | 7.81 µM | 8.09 µM | > 100 µM | 23.1 µM | > 100 µM | 46.8 µM | > 100 µM
CC[C@H](Nc1nc(NCc2cnc(C)cc2C)c2ncn(C(C)C)c2n1)[C@@H](C)O | 0.167 µM | 0.391 µM | 0.327 µM | > 100 µM | 0.247 µM | 0.64 µM | 0.331 µM | > 100 µM | 0.252 µM | > 67.5 µM | 1.18 µM | 4.22 µM | 3.89 µM | > 100 µM | 0.351 µM | > 100 µM | 0.235 µM | > 21.9 µM | 0.304 µM | 1.88 µM
COc1cc2cc(Oc3ccc(NC(=O)Nc4cccc(C(F)(F)F)c4)cc3)c(C)nc2cc1OC | 1.29 µM | 4.95 µM | 1.64 µM | 7.71 µM | 1.12 µM | 2.4 µM | 2.05 µM | 6.26 µM | 1.84 µM | 6.61 µM | 1.71 µM | 4.9 µM | 2.06 µM | 10.6 µM | 2.06 µM | 16.3 µM | 2.28 µM | 11.1 µM | 1.84 µM | 10.9 µM
O=c1c2ccccc2n(C[C@H]2CO2)c2ccccc12 | 2.62 µM | 6.57 µM | 0.886 µM | 3.9 µM | 1.49 µM | 4.15 µM | 2.24 µM | 7.91 µM | 1.51 µM | 3.15 µM | 1.65 µM | 3.19 µM | 2.64 µM | 7.33 µM | 1.8 µM | 7.05 µM | 0.828 µM | 12.7 µM | 1.59 µM | 3.11 µM
O=c1ccn(C2OC(CO/N=C/c3ccc(O)c(O)c3O)C(O)C2O)c(=O)[nH]1 (centres undefined) | 15.4 µM | 39.2 µM | 31.8 µM | > 100 µM | 14.7 µM | 30.6 µM | 28.9 µM | 84.3 µM | 16.1 µM | 32.2 µM | 10.1 µM | > 100 µM | 27.2 µM | 89 µM | 20.1 µM | 38.7 µM | 19.1 µM | 35.9 µM | 76.4 µM | > 100 µM
C/C(=N/Nc1nc2ccccc2n1C)c1ccccn1 | 0.123 µM | 0.81 µM | 0.0136 µM | 7.7 µM | 0.0254 µM | 10.9 µM | 0.044 µM | 24.4 µM | 0.0514 µM | 11.4 µM | 0.148 µM | 16.7 µM | 0.113 µM | 5.93 µM | 0.106 µM | 23 µM | 0.0429 µM | 21.8 µM | 0.14 µM | 0.793 µM
COC1CC2CCC(C)C(O)(O2)C(=O)C(=O)N2CCCCC2C(=O)OC(C(C)CC2CCC(O)C(OC)C2)CC(=O)C(C)C=C(C)C(O)C(OC)C(=O)C(C)CC(C)/C=C/C=C/C=C1C (centres undefined) | < 0.005 µM | 6.86 µM | 2.55 µM | 21.1 µM | 5.64 µM | 12.9 µM | – | 10.8 µM | 0.015 µM | 13.1 µM | < 0.005 µM | 8.36 µM | < 0.005 µM | 10.7 µM | 5.24 µM | 14.6 µM | 5.39 µM | 14 µM | 0.0265 µM | 11.6 µM
CCn1c(CN2CCN(Cc3ccccc3)CC2)nc2cc(NC(=O)c3cccs3)ccc21 | 6.05 µM | 29.6 µM | 18.7 µM | 75.4 µM | 13.5 µM | 29.3 µM | 16.8 µM | 47.3 µM | 19.4 µM | 41.7 µM | 18.6 µM | 37.3 µM | 25.7 µM | 71.6 µM | 23.5 µM | > 100 µM | 17.5 µM | 43.4 µM | 14.3 µM | 31.5 µM
Ic1ccccc1-c1ccccc1 | 65.1 µM | > 100 µM | > 100 µM | > 100 µM | > 100 µM | > 100 µM | > 100 µM | > 100 µM | 42.4 µM | > 100 µM | 96.2 µM | > 100 µM | > 100 µM | > 100 µM | > 100 µM | > 100 µM | > 100 µM | > 100 µM | 46.7 µM | > 100 µM
